Source: patent publication US10328075B2, “Method of treatment and compounds for use therein” (Baker Heart and Diabetes Institute, priority 2015, dated 2019)

Experiments:
[1] = tested on: adult mouse cardiac fibroblasts; experiment: TGF-β stimulation of adult mouse cardiac fibroblasts, CTGF and IL-1β expression; type: cell-based; conditions: 10 μM, 24 h TGF-β
Experimental: Isolation and culture of primary rat cardiomyocytes and mouse cardiac fibroblasts: All materials used for cell isolation were of tissue culture grade. Isolation of primary neonatal rat cardiac cardiomyocytes (NRCM) and adult mouse cardiac fibroblasts (AMCF) was performed by serial enzymatic digestion, as previously described (Irvine et al 2012 & Irvine et al. 3) NRCM were plated onto either 12-well tissue culture plates (for simulated ischemia-reperfusion, via hypoxia-reoxygenation, H-R) or 60 mm tissue culture dishes (for gene expression) at a density of 1.3×10^5 cells/cm^2, in the presence of 1% 5-bromo-2′-deoxyuridine. AMCF (passage #3) were seeded onto 60 mm tissue culture dishes at 9.5×10^4 cells/cm^2 and allowed to grow to 80% confluence prior to study. […] At the end of hypoxia, Kreb's buffer was replaced with fresh, sterile-filtered Kreb's buffer, in the presence or absence of FPR agonists Cmpd17b, Cmpd43 (both 1 μM or vehicle, and NRCM were subjected to 48 h reoxygenation at 37° C. At the end of 48 h reoxygenation, NRCM supernatant was collected for assessment of cardiomyocyte injury. Cardiomyocyte release of cTnI was determined using a commercially available, high-sensitivity rat cTnI ELISA kit (Life Diagnostic Inc.) as per the manufacturer's instructions. Separate NRVM on 60 mm dishes were incubated for 48 h at 37° C. in serum-free DMEM, in the presence or absence of FPR agonists Cmpd17b, Cmpd43 (both 1 μM) or vehicle. At the end of 48 h, RNA was extracted and real-time PCR performed (as described previously (Huynh et al. 2012)), to determine the relative gene expression of rat Fprs (rFpr1, rFpr2 and rFpr3, expressed as the threshold cycle number Ct subtracted from the maximum cycle number utilized, 40). […]
Cardiomyocytes injury responses in vitro: Neonatal rat cardiomyocytes and adult mouse cardiofibroblasts were isolated and cultured as described (online Supplement). […] Cardiomyocyte injury was assessed by measurement of cardiac cTnI in cardiomyocyte supernatant. […]

[2] = tested on: mFpr1, mFpr2 expression in AMCF; experiment: Fpr gene expression in adult mouse cardiac fibroblasts (real-time PCR); type: cell-based; conditions: 10 μM, 24 h incubation, TGF-β
Experimental: AMCFs were starved overnight in serum-free DMEM prior to incubation with the pro-fibrotic stimulus transforming growth factor TGF-β (10 ng/ml) for 24 h at 37° C. FPR agonists Cmpd17b, Cmpd43 (both 10 μM) or vehicle were present 30 min prior to TGF-β. At the end of 24 h stimulation, RNA was extracted and real-time PCR performed to determine the relative gene expression of CTGF and IL-1β, relative to housekeeping gene 18S, as described previously (5). Relative gene expression of mouse Fprs (mFpr1 and mFpr2, expressed as the threshold cycle number Ct subtracted from the maximum cycle number utilized, 40) was also determined at the end of 24 h stimulation.

| SMILES | TGF-β-induced pro-inflammatory IL-1β response in cardiofibroblasts [1] | AMCF expression of mFpr1 [2] | AMCF expression of mFpr2 [2] | Pro-fibrotic CTGF response to TGF-β in cardiofibroblasts [1] |
| --- | --- | --- | --- | --- |
| COc1cccc(Cc2cc(C)nn(C(C)C(=O)Nc3ccc(Br)cc3)c2=O)c1 (stereo not drawn) [BIDI-001, N-(4-bromophenyl)-2-[5-(3-methoxybenzyl)-3-methyl-6-oxo-6H-pyridazin-1-yl]-propionamide] | not | did not significantly influence | did not significantly influence | – |
| CC(C)C1C(NC(=O)Nc2ccc(Cl)cc2)C(=O)N(c2ccccc2)N1C (stereo not drawn) [BIDI-002] | tended to persist | restored | – | remained significant |
